Source: US11534438B2, “Composition containing piperacillin, pharmaceutical formulation thereof and use thereof” (priority 2017, dated 2022)
Read-outs that look alike come from different tables or passages of the source.

Legend:
[1] = tested on: CBP-R (a carbapenem-resistant strain of A. baumannii); assay: Animal protection experiment, mice infected with CBP-R; assay type: in vivo, Acinetobacter baumannii; conditions: for ED50: Acinetobacter baumannii, read-out: ED50 for animals infected with A. baumannii, CBP-R a carbapenem-resistant A. baumannii; for inhibitory / anti-bacterial effect on drug-resistant strains of A. baumannii (in words): infected ICR mice, drug-resistant strains (CBP-R and CPZ/S-R), summary of Table 1
Method: (§1) Tested animals were ICR mice. Tested bacterial strains were ATCC19606 (a standard strain of A. baumannii), CBP-R (a carbapenem-resistant strain of A. baumannii), and CPZ/S-R (a cefoperazone-sulbactam-resistant strain of A. baumannii). Among them, the standard strain was obtained from ATCC, and the other strains were clinically isolated.
(§2) Determining the dose ranges of the tested samples: The tested strains were diluted with 5% high active dry yeast to obtain bacterial dilutions of different concentrations (10^−1, 10^−2, 10^−3, and 10^−4), and then intraperitoneally injected into the tested animals in 0.5 ml/mice. The number of dead mice after infection was recorded. The minimum bacterial dose, which kills 100% members of the mice, was recorded as 1 MLD. The mice were infected with 1 MLD of bacteria which was formulated with 5% high active dry yeast Immediately and 6 hours after the infection, a preliminary experiment was carried out with high, median and low dosages of the tested samples, and the survival numbers of the mice after infection were recorded. Based on the results of the preliminary experiment, the administration dosages of the tested samples were designed for the animal protection experiment.
(§3) Animal protection experiment: After fasting with water only for 18 h, the mice (half male and female, 25-30 g body weight) were randomly divided into: (1) ATCC19606 group, (2) CBP-R group, and (3) CPZ/S-R group. Each group was treated with five concentrations of the samples, and included 10 animals. In addition, 10 animals were incorporated as a control group. Each mouse was intraperitoneally injected with 0.5 ml of 1 MLD bacterial solution to establish an infection model. At 0 h and 6 h after infection, the mice were subcutaneously injected with different concentrations of the tested samples, 0.2 ml/mice, and the mice of the control group were injected with the same volume of sterilized water. The animals were observed continuously for 7 days, and the death of animals in each group was recorded. The 50% effective dose (ED50) of each tested sample was calculated by the Bliss method. Smaller ED50 means that the tested sample has better anti-bacterial effect in vivo, and better protective effect on the experimental animals.

[2] = tested on: CPZ/S-R (a cefoperazone-sulbactam-resistant strain of A. baumannii); assay: Animal protection experiment, mice infected with CPZ/S-R; assay type: in vivo; conditions: Acinetobacter baumannii, read-out: ED50 for animals infected with A. baumannii, CPZ/S-R a cefoperazone-sulbactam resistant A. baumannii
Method: as §1
as §2, with “Based on the results of the preliminary experiment, the administration dosages of the tested samples were designed for the animal protection experiment.” left out
Animal protection experiment: After fasting with water only for 18 h, the mice (half male and female, 25-30 g body weight) were randomly divided into: (1) ATCC19606 group, (2) CBP-R group, and (3) CPZ/S-R group. […] The animals were observed continuously for 7 days, and the death of animals in each group was recorded. […]

[3] = tested on: ATCC19606 (a standard strain of A. baumannii); assay: Animal protection experiment, mice infected with ATCC19606; assay type: in vivo, Acinetobacter baumannii; conditions: for ED50: Acinetobacter baumannii; for inhibitory effect on the standard strain of A. baumannii without drug resistance (in words): infected ICR mice, summary of Table 1
Method: as §1, §2, §3

A. baumannii = conditions: it is reported; cited from earlier work
[4] = ICR mice, 1 MLD i.p. infection, s.c. dosing at 0 h and 6 h, 7 days observation, Bliss method

Row | SMILES | ED50 [1, 4] [mg/kg] | inhibitory / anti-bacterial effect on drug-resistant strains of A. baumannii (in words) [1] | ED50 [2, 4] [mg/kg] | ED50 ([3]; ATCC19606, ICR mice, 1 MLD i.p. infection, s.c. dosing at 0 h and 6 h, 7 days observation, Bliss method, read-out: ED50 for animals infected with A. baumannii, ATCC19606 a standard strain) [mg/kg] | inhibitory effect on the standard strain of A. baumannii without drug resistance (in words) [3] | resistance rate of A. baumannii (A. baumannii) | ED50 [1] [mg/kg] | ED50 [2] [mg/kg] | ED50 ([3]; ATCC19606, read-out: ED50 for animals infected with A. baumannii, ATCC19606 a standard strain) [mg/kg]
1 | C[C@@H](O)[C@H]1C(=O)N2C(C(=O)O)=C(S[C@@H]3CN[C@H](C(=O)N(C)C)C3)[C@H](C)[C@H]12 [Meropenem] | > 200 | significantly decreased inhibitory effect | 100 to 200 | < 20 | more advantageous in pharmaceutical efficacy |  |  |  | 
2 | CCN1CCN(C(=O)N[C@@H](C(=O)N[C@@H]2C(=O)N3[C@@H]2SC(C)(C)[C@@H]3C(=O)O)c2ccccc2)C(=O)C1=O [piperacillin] |  |  |  |  |  | over 70% |  |  | 
3 | CC1(C)[C@H](C(=O)O)N2C(=O)C[C@H]2S1(=O)=O [Sulbactam, (2S,5R)-3,3-dimethyl-7-oxo-4-thia-1-azabicyclo[3.2.0]heptane-2-carboxylic acid-4,4-dioxide] |  | significantly decreased inhibitory effect |  |  | more advantageous in pharmaceutical efficacy |  | 100 to 200 | > 200 | < 20
